Experimental data published in PubChem BioAssay (NCI).
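At the GI50, growth is halved. TGI is the concentration that stops growth completely.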

How the values were obtained:
Assay in all cases: inhibition of tumour cell growth, NCI panel, 384-well format
[1] = test system: TK-10 renal
[2] = test system: IGROV1 ovarian
[3] = test system: U251 glioblastoma
[4] = test system: SF-268 CNS
[5] = test system: NCI/ADR-RES ovarian
[6] = test system: HL-60(TB) leukemia
[7] = test system: NCI-H322M lung
[8] = test system: RPMI-8226 leukemia
[9] = test system: HCT-15 colon
[10] = test system: DU-145 prostate
[11] = test system: SK-MEL-5 melanoma
[12] = test system: A549 NSCLC
[13] = test system: RXF 393 renal
[14] = test system: OVCAR-5 ovarian
[15] = test system: MALME-3M melanoma
[16] = test system: SK-MEL-28 melanoma
[17] = test system: CAKI-1 renal
[18] = test system: MCF7 breast
[19] = test system: UACC-257 melanoma
[20] = test system: SNB-19 CNS
[21] = test system: SK-OV-3 ovarian
[22] = test system: OVCAR-8 ovarian
[23] = test system: HT29 colon
[24] = test system: HCC-2998 colon
[25] = test system: MDA-MB-468 breast
[26] = test system: NCI-H460 NSCLC
[27] = test system: OVCAR-3 ovarian
[28] = test system: A498 renal
[29] = test system: MDA-MB-231 breast
[30] = test system: NCI-H522 lung
[31] = test system: SNB-75 CNS
[32] = test system: SN12C renal
[33] = test system: BT-549 breast
[34] = test system: COLO 205 colon
[35] = test system: PC-3 prostate
[36] = test system: NCI-H226 lung
[37] = test system: NCI-H23 lung
[38] = test system: T-47D breast
[39] = test system: M14 melanoma
[40] = test system: MDA-MB-435 melanoma
[41] = test system: HOP-92 NSCLC
[42] = test system: HS 578T breast
[43] = test system: KM12 colon
[44] = test system: SF-295 CNS
[45] = test system: EKVX NSCLC
[46] = test system: HCT-116 colon
[47] = test system: SF-539 CNS
[48] = test system: SR leukemia
[49] = test system: UACC-62 melanoma
[50] = test system: LOX IMVI melanoma
[51] = test system: HOP-62 NSCLC
[52] = test system: ACHN renal
[53] = test system: OVCAR-4 ovarian
[54] = test system: MOLT-4 leukemia

SMILES: N[C@@H]1CCCN(c2c(/C=C3\SC(=O)NC3=O)cccc2-c2ccccc2)C1
- GI50 [1]: 12.3 µM
- TGI [1]: 24.9 µM
- GI50 [2]: 17.1 µM
- TGI [2]: 31.2 µM
- GI50 [3]: 8.54 µM
- TGI [3]: 20.8 µM
- GI50 [4]: 16.8 µM
- TGI [4]: 30.6 µM
- GI50 [5]: 18.1 µM
- TGI [5]: 33.1 µM
- GI50 [6]: 1.31 µM
- TGI [6]: 16.5 µM
- GI50 [7]: 18 µM
- TGI [7]: 31.9 µM
- GI50 [8]: 0.543 µM
- TGI [8]: 3.07 µM
- GI50 [9]: 17.7 µM
- TGI [9]: 31.7 µM
- GI50 [10]: 16.9 µM
- TGI [10]: 30.7 µM
- GI50 [11]: 11.4 µM
- TGI [11]: 23.5 µM
- GI50 [12]: 16.7 µM
- TGI [12]: 30.8 µM
- GI50 [13]: 17 µM
- TGI [13]: 30.8 µM
- GI50 [14]: 17 µM
- TGI [14]: 30.8 µM
- GI50 [15]: 12.9 µM
- TGI [15]: 25.7 µM
- GI50 [16]: 16.9 µM
- TGI [16]: 30.7 µM
- GI50 [17]: 18.5 µM
- TGI [17]: 32.8 µM
- GI50 [18]: 14.5 µM
- TGI [18]: 27.8 µM
- GI50 [19]: 15.9 µM
- TGI [19]: 29.4 µM
- GI50 [20]: 4.67 µM
- TGI [20]: 15 µM
- GI50 [21]: 14.8 µM
- TGI [21]: 28.5 µM
- GI50 [22]: 16.2 µM
- TGI [22]: 29.9 µM
- GI50 [23]: 15.2 µM
- TGI [23]: 28.8 µM
- GI50 [24]: 14.5 µM
- TGI [24]: 27.7 µM
- GI50 [25]: 14.6 µM
- TGI [25]: 27.8 µM
- GI50 [26]: 16.8 µM
- TGI [26]: 30.6 µM
- GI50 [27]: 13.1 µM
- TGI [27]: 25.9 µM
- GI50 [28]: 16.6 µM
- TGI [28]: 30.3 µM
- GI50 [29]: 14.5 µM
- TGI [29]: 27.8 µM
- GI50 [30]: 13.5 µM
- TGI [30]: 26.4 µM
- GI50 [31]: 3.5 µM
- TGI [31]: 12.1 µM
- GI50 [32]: 19.4 µM
- TGI [32]: 33.6 µM
- GI50 [33]: 1.9 µM
- TGI [33]: 4.17 µM
- GI50 [34]: 14.1 µM
- TGI [34]: 27.1 µM
- GI50 [35]: 13.2 µM
- TGI [35]: 26 µM
- GI50 [36]: 13.8 µM
- TGI [36]: 26.7 µM
- GI50 [37]: 16.8 µM
- TGI [37]: 30.6 µM
- GI50 [38]: 15.6 µM
- TGI [38]: 29 µM
- GI50 [39]: 14.6 µM
- TGI [39]: 27.8 µM
- GI50 [40]: 15.1 µM
- TGI [40]: 28.5 µM
- GI50 [41]: 11.5 µM
- TGI [41]: 23.8 µM
- GI50 [42]: 13.8 µM
- TGI [42]: 26.8 µM
- GI50 [43]: 16.9 µM
- TGI [43]: 30.8 µM
- GI50 [44]: 6.08 µM
- TGI [44]: 18.7 µM
- GI50 [45]: 16.4 µM
- TGI [45]: 30 µM
- GI50 [46]: 15.4 µM
- TGI [46]: 28.9 µM
- GI50 [47]: 7.38 µM
- TGI [47]: 20.2 µM
- GI50 [48]: 1.16 µM
- TGI [48]: 15.5 µM
- GI50 [49]: 16.6 µM
- TGI [49]: 30.4 µM
- GI50 [50]: 17.8 µM
- TGI [50]: 31.6 µM
- GI50 [51]: 11.7 µM
- TGI [51]: 23.9 µM
- GI50 [52]: 17.7 µM
- TGI [52]: 31.7 µM
- GI50 [53]: 12.3 µM
- TGI [53]: 25.3 µM
- GI50 [54]: 13.4 µM
- TGI [54]: 26.3 µM

SMILES: N#Cc1ccc(C(c2ccc(C#N)cc2)n2cncn2)cc1
- GI50 [13]: 16.8 µM
- TGI [13]: 97.8 µM
